Key:
[1] = roughly corresponding to the cut off value; cited from earlier work
[2] = test system: 5 kinds of human colorectal cancer cell lines (COLO320, HCT-15, HT-29, LS174T, HCT116); assay: Evaluation of SN-38 sensitivity, MTS assay (cell survival rate); assay type: cell-based; details: 72 hours exposure, range over 5 cell lines, read-out: IC50 value of each cell line (SN-38 sensitivity)
Method: After exposure of each cell line to 0 to 1,000 μmol/Loxaliplatin for 48 hours, a cell survival rate was evaluated with MTS assay (CellTiter96™ AQueous One Solution Cell Proliferation Assay, Promega). Then, IC50 value (a concentration at which the number of cells is suppressed to 50% with respect to that in an oxaliplatin-untreated well) was calculated and used as an oxaliplatin sensitivity in each cell line. The evaluation of the sensitivity was performed four times with cells having different passage numbers and the average value and the standard deviation value thereof were calculated.
As cells, 5 kinds of human colorectal cancer cell lines (COLO320, HCT-15, HT-29, LS174T, HCT116 (HCT116 was obtained from ECACC)), and as a drug, an irinotecan active metabolite (SN-38, obtained from Yakult Honsha, Co., Ltd.) were used. The cell survival rate after exposure to 0 to 1,000 nmol/L SN-38 for 72 hours was evaluated by MTS assay in the same manner as in Example 1 and the IC50 value was calculated. […] For the analysis, ProteinChip™ Reader (Model PCS4000 Personal Edition, Bio-Rad) was used, and the analysis was performed under the following conditions: mass range, 0 to 70,000 daltons; focus mass, 11,000 daltons; energy, 3,000 nJ; and 265 shots in total per sample. […]

[3] = Clinical blood exposure to SN-38 after irinotecan administration, calculated from interview form parameters; assay type: in vivo, human
Method: Based on the pharmacokinetic parameters of SN-38 (Campto™, interview form), the area under the curve of SN-38 blood concentration (AUCSN-38) obtained after the first irinotecan administration of the colon cancer therapy regimen (180 mg/m^2/day) was calculated to be 1,449 nmol·h/L. The concentration of SN38 required to obtain the same exposure amount through 72-hour exposure employed in this Example was calculated to be 20 nM. Therefore, a cut off value was set to 20 nM for the IC50 value of each cancer cell line with respect to SN-38 and the cancer cell lines were classified into two groups of a high sensitivity group and a low sensitivity group. As a result, there was a significant increase in the peak intensity of the peak detected at m/z of 11,000 to 11,100 in the low sensitivity group (FIG. 6).

[4] = human, in vivo, 100 mg/m2

O=C1[O][Pt]2([NH][C@@H]3CCCC[C@H]3[NH]2)[O]C1=O [oxaliplatin, (SP-4-2)-[(1R,2R)-cyclohexane-1,2-diamine-κN,κN′][ethanedioato (2-)-κO^1,κO^2]platinum]
peak blood concentration at the time of clinical use [1]: ~5.0 µM

CCc1c2c(nc3ccc(O)cc13)-c1cc3c(c(=O)n1C2)COC(=O)[C@]3(O)CC [SN-38]
IC50 [2]: 0.00339 to 0.0337 µM | concentration of SN38 required to obtain the same exposure amount through 72-hour exposure ([3]; AUC equivalent over 72-hour exposure): 0.02 µM | area under the curve of SN-38 blood concentration (AUCSN-38) ([3]; after first irinotecan administration of colon cancer regimen, 180 mg/m^2/day): 1,449 nmol·h/L

N.N.[Cl][Pt][Cl] [cisplatin, cis-Diammineplatinum(II) dichrolide]
Cmax [4]: 9.5 to 11 µM
